Assay results taken from patent publication US12637435B2, “Nitrogen-containing heterocyclic compound or salt thereof, use thereof, and intermediate thereof” (FUJIFILM Corporation, priority 2020, dated 2026).

How the values were obtained:
HL60 subcutaneous tumor = experiment: In vivo drug efficacy test in cancer-bearing mouse model with subcutaneous transplantation of HL60; details: HL60 subcutaneous xenograft, female NOD/scid mice, oral 2.5 to 10 mg/kg once a day for 10 to 12 days
Source text: (Drug Efficacy Test in Cancer-Bearing Mouse Model with Subcutaneous Transplantation of HL60)
The human acute myeloid leukemia cell line HL60 (available from JCRB) was suspended in a mixture of RPMI-1640 culture medium and Matrigel (available from Corning Inc.), and then subcutaneously transplanted into 6-week-old female NOD/scid mice (available from CLEA Japan, Inc.). The test compound was dispersed in a solvent (0.5% aqueous methylcellulose solution), and from the time when tumor engraftment was visually confirmed, the test compound was orally administered to mice at a dose of 2.5 to 10 mg/kg once a day for 10 to 12 days. A solvent administration group to which a 0.5% aqueous methylcellulose solution was administered was provided as a negative control. The tumor diameter was measured over time and the tumor volume was calculated. The tumor volume was calculated by measuring the major axis and the minor axis of the tumor and using the following expression. Tumor volume (mm^3)=[major axis (mm)×minor axis (mm)×minor axis (mm)]/2
T/C (%) was calculated from the average tumor volume of each group by the following expression, and the drug efficacy was evaluated. T/C (%)=(average tumor volume of drug-administered group)/(average tumor volume of solvent-administered group)×100%

recombinant human DHODH = biological target: T1, recombinant human DHODH (Homo sapiens, UniProt Q02127); experiment: DHODH enzyme reaction inhibition test (DCIP-coupled assay); assay type: biochemical; details: recombinant human DHODH 0.175 μg/mL, DCIP absorbance 600 nm, 50 minutes, pH 8.0; read-out: Enzyme reaction inhibitory effect (IC50)
T1 construct: DHODH, 31-395aa, Human, His tag, E. coli, ATGP1615; His tag; purchased ATGen Co. Ltd. ATGP1615; host or cells: E. coli
T1 sequence (Q02127 31-395): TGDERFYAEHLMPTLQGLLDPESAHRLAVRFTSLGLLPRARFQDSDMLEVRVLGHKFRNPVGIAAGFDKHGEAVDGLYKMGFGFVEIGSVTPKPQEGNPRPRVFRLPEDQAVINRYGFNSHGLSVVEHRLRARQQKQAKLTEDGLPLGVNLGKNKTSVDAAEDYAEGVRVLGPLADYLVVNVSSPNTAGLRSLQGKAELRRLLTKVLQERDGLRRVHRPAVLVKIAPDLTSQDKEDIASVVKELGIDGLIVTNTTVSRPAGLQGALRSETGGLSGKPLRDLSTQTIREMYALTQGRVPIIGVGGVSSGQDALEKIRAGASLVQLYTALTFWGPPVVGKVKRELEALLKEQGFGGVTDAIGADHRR
Protocol: The DHODH enzyme assay was carried out with reference to “Benjamin Bader, Wolfgang Knecht, Markus Fries, and Monika Loffler, Expression, Purification, and Characterization of Histidine-Tagged Rat and Human Flavoenzyme Dihydroorotate Dehydrogenase, Protein Expression and Purification, 1998, 13, 414-422.”
The DHODH activity was evaluated using an enzyme assay system that is coupled with an assay in which a blue coloring agent 2,6-dichlorophenolindophenol (DCIP, available from MP Biomedicals, LLC, MP150118) is quenched. Purified recombinant human DHODH (DHODH, 31-395aa, Human, His tag, E. coli, ATGP1615) was purchased from ATGen Co. Ltd. The enzyme assay was carried out in a 384-well plate using a buffer solution containing 100 mmol/L Hepes (available from Dojindo Laboratories, 342-01375), 400 mmol/L NaCl (available from FUJIFILM Wako Pure Chemical Corporation, 191-01665), 10% Glycerol (available from FUJIFILM Wako Pure Chemical Corporation, 075-00616), 0.05% Triton X-100 (available from Sigma-Aldrich Co., LLC, T8787-100ML), 0.2 mmol/L Ubiquinone-10 (available from FUJIFILM Wako Pure Chemical Corporation, 216-00761), 0.1 mmol/L DHO (L-dihydroorotic acid, available from Sigma-Aldrich Co., LLC, D7128), 0.5% DMSO (dimethylsulfoxide, available from FUJIFILM Wako Pure Chemical Corporation, 047-29353), 0.175 μg/mL DHODH, and 0.12 mmol/L DCIP and having a pH adjusted to 8.0 by adding 5 mol/L potassium hydroxide (available from FUJIFILM Wako Pure Chemical Corporation, 168-21815). A test compound with a predetermined concentration was added using Biomek NX (available from Beckman Coulter Inc.), and the enzyme reaction was started by adding the substrate. The enzyme activity was assessed by measuring the decrease in DCIP absorbance (600 nm) for 50 minutes using an EnVision plate-reading spectrophotometer (available from PerkinElmer, Inc.).
The enzyme reaction inhibition rate at each test compound concentration was determined, and the 50% enzyme reaction inhibition concentration [IC50 (nmol/L)] was calculated using XLfit. Enzyme reaction inhibition rate (%)=(amount of luminescence in test compound-added well)/(amount of luminescence in DMSO-added well)×100
The abbreviations in the table have the following meanings. • A: IC50 value<10 nmol/L • B: 10 nmol/L≤IC50 value<100 nmol/L • C: 100 nmol/L≤IC50 value

[1] = tested on: human myeloid leukemia cell line HL60; experiment: Cell growth test, HL60 (CellTiter-Glo); assay type: cell-based; details: HL-60, 72 h, HL60 cells, 3 days, CellTiter-Glo luminescence, read-out: Cell growth inhibitory effect (GI50)
Protocol: The cell growth test was carried out using the human myeloid leukemia cell line HL60 (available from ATCC, CRL-240). As a culture medium of HL60 cells, RPMI 1640 (available from FUJIFILM Wako Pure Chemical Corporation, 189-02025) supplemented with 10% fetal bovine serum (available from Thermo Fisher Scientific, Inc., 10437-028), and 1% penicillin-streptomycin (10,000 U/mL, available from Thermo Fisher Scientific, Inc., 15140-122) was used. HL60 cells were seeded on a 384-well plate (available from Corning Inc., 4588) at a cell density of 1×10^3 cells/20 μL/well. After culturing overnight, 5 μL of the test compound having a predetermined concentration was added, and 3 days later, 25 μL of CellTiter-Glo (registered trademark) Luminescent Cell Viability Assay (available from Promega Corporation, G7573) was added, and then the amount of luminescence was measured using an EnVision plate reader (available from PerkinElmer, Inc.). Since the amount of luminescence is proportional to the intracellular concentration of adenosine triphosphate (ATP), the amount of luminescence was used as an indicator of the number of viable cells. The growth inhibitory concentration for each test compound concentration was calculated by the following expression.
The growth inhibition rate at each test compound concentration was determined, and the 50% growth inhibitory concentration [GI50 (nmol/L)] was calculated using XLfit. Growth inhibition rate (%)=(amount of luminescence in test compound-added well)/(amount of luminescence in DMSO-added well)×100
The abbreviations in the table have the following meanings. • A: GI50 value<100 nmol/L • B: 100 nmol/L≤GI50 value<1,000 nmol/L • C: 1,000 nmol/L≤GI50 value

Row | Structure (SMILES) | tumor growth inhibition rate (T/C from tumor volume) (HL60 subcutaneous tumor) | IC50 (recombinant human DHODH) [µM] | GI50 [1] [µM]
1 | CS(=O)(=O)NC(=O)c1nc(C2CC2)cnc1Nc1cccc(C2=CCOCC2)c1OCC(F)(F)F [Example 1-2, 6-cyclopropyl-3-((3-(3,6-dihydro-2H-pyran-4-yl)-2-(2,2,2-trifluoroethoxy)phenyl)amino)-N-(methylsulfonyl)pyrazine-2-carboxamide] | excellent tumor growth inhibition rate | < 0.01 | < 0.1
2 | CS(=O)(=O)NC(=O)c1nc(C2CC2)cnc1Nc1cccc(C2CCOCC2)c1OCC(F)(F)F [Example 3-30] | excellent tumor growth inhibition rate | < 0.01 | < 0.1
3 | N#Cc1ccc(-c2cccc(Nc3ncc(C4CC4)nc3C(=O)NS(N)(=O)=O)c2OCC(F)(F)F)cc1 [Example 3-41] | excellent tumor growth inhibition rate | < 0.01 | < 0.1
4 | N#Cc1ccc(-c2cc(F)cc(Nc3ncc(C4CC4)nc3C(=O)NS(N)(=O)=O)c2OC(F)F)cc1 [Example 3-54] |  | 0.01 to 0.1 | 0.1 to 1
5 | CS(=O)(=O)NC(=O)c1nc(C2CC2)cnc1Nc1cc(F)cc(-c2ccc(C#N)cc2)c1OC(F)F [Example 3-55] |  | 0.01 to 0.1 | 0.1 to 1
6 | CS(=O)(=O)NC(=O)c1nc(C2CC2)cnc1Nc1cccc(-c2ccc(F)cc2)c1OCC(F)(F)F [Example 3-56] |  | < 0.01 | < 0.1
7 | CCOc1c(Nc2ncc(C3CC3)nc2C(=O)NS(C)(=O)=O)cccc1C1=CCOCC1 [Example 3-57] |  | < 0.01 | < 0.1
8 | CCOc1ccc(Nc2ncc(C3CC3)nc2C(=O)NS(C)(=O)=O)c(OCC)c1C1=CCOCC1 [Example 3-58] |  | < 0.01 | < 0.1
9 | CCOc1c(C2=CCOCC2)ccc(F)c1Nc1ncc(C2CC2)cc1C(=O)NS(C)(=O)=O [Example 3-59] |  | 0.01 to 0.1 | ≥ 1
10 | CCOc1c(Nc2ncc(C3CC3)cc2C(=O)NS(C)(=O)=O)ccc(F)c1C1=CCOCC1 [Example 3-60] |  | < 0.01 | < 0.1
11 | CS(=O)(=O)NC(=O)c1cc(C2CC2)ncc1Nc1cccc(C2=CCOCC2)c1OCC(F)(F)F [Example 3-61] |  | < 0.01 | 0.1 to 1
12 | C[C@H](Oc1c(Nc2ncc(C3CC3)nc2C(=O)NS(C)(=O)=O)cccc1C1=CCCOC1)C(F)(F)F [Example 3-62] |  | 0.01 to 0.1 | 0.1 to 1
13 | C[C@H](Oc1c(Nc2nnc(C3CC3)cc2C(=O)NS(C)(=O)=O)cccc1C1CCOCC1)C(F)(F)F [Example 3-63] |  | 0.01 to 0.1 | ≥ 1
14 | C[C@H](Oc1c(Nc2ccc(C3CC3)cc2C(=O)NS(C)(=O)=O)ccnc1C1=CCOCC1)C(F)(F)F [Example 3-64] |  | 0.01 to 0.1 | 0.1 to 1
15 | CC(C)c1cnc(Nc2cccc(C3=CCOCC3)c2OCC(F)(F)F)c(C(=O)NS(C)(=O)=O)n1 [Example 3-65] |  | < 0.01 | 0.1 to 1
16 | CCc1cnc(Nc2cccc(C3=CCOCC3)c2OCC(F)(F)F)c(C(=O)NS(C)(=O)=O)n1 [Example 3-66] |  | < 0.01 | 0.1 to 1
17 | Cc1cnc(Nc2cccc(C3=CCOCC3)c2OCC(F)(F)F)c(C(=O)NS(C)(=O)=O)n1 [Example 3-67] |  | 0.01 to 0.1 | 0.1 to 1
